From patent US10323016B2, “Imidazol- or 1,2,4-triazol-derivatives and their use” (UNIVERSITE DE LILLE 2 DROIT ET SANTE, priority 2014, dated 2019)

What was measured:
hTGR5 = hTGR5 (Homo sapiens (Human), UniProt Q8TDU6); assay: TGR5/CRE Luciferase Assay (hTGR5); format: cell-based; details: for EC50: HEK 293 cells transiently co-transfected with pCMV tag4b-TGR5h and pCRE TA-Luciferase reporter, overnight incubation; for hTGR5 % trans: HEK 293 luciferase reporter, percentage of the 10 μM LCA value
Method: (§1) TGR5/CRE Luciferase Assay
(§2) In the following tables TGR5 activation by compounds and subsequent increase in intracellular cAMP were evaluated using a luciferase reporter gene assay. Human embryonic kidney (HEK) 293 cells were transiently co-transfected with pCMV tag4b-TGR5 h (to follow hTGR5 activation) or pCMV AC6-TGR5m (to follow mTGR5 activation) expression plasmids and the pCRE TA-Luciferase reporter plasmid using the JET PEI reagent (Polyplus transfection). Transfected cells were seeded in 96-well plates and incubated overnight with the test compounds at increasing concentrations tested in duplicate. Lithocolic acid (LCA) at 10 μM was used as a positive reference compound. The cAMP-dependent luciferase expression was followed using the BrightGlo reagent according to the manufacturer (Promega) instructions. Luminescence was read with a Mithras plate reader (Berthold). […] Concentration-response curves were fitted by a nonlinear regression analysis to a 4 parameter logistic equation.

mTGR5 = mTGR5 (Mus musculus (Mouse), UniProt Q80SS6); assay: TGR5/CRE Luciferase Assay (mTGR5); format: cell-based; details: for EC50: HEK 293 cells transiently co-transfected with pCMV AC6-TGR5m and pCRE TA-Luciferase reporter, overnight incubation; for mTGR5 % trans: HEK 293 luciferase reporter, percentage of the 10 μM LCA value
Method: as §1, §2

Sequence of mTGR5 (Q80SS6 whole entry): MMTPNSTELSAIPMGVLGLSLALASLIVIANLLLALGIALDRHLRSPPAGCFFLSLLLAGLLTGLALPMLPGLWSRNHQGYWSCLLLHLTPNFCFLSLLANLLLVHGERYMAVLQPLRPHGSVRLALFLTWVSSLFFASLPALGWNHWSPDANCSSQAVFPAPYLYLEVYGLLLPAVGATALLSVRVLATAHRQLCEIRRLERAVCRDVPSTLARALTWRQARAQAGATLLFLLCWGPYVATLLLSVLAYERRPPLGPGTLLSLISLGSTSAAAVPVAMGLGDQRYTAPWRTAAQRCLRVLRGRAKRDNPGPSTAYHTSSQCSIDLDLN
Sequence of hTGR5 (Q8TDU6 whole entry): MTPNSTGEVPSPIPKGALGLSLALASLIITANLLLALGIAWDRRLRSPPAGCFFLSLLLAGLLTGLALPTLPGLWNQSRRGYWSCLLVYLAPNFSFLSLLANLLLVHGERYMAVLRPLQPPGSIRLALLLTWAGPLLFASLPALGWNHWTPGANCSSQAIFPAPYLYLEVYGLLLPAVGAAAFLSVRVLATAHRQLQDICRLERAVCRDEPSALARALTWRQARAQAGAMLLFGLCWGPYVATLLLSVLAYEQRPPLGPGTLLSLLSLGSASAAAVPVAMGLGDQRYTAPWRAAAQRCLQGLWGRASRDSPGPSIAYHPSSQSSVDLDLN

| Substance | EC50 (hTGR5) [nM] | hTGR5 % trans (hTGR5) [%] | EC50 (mTGR5) [nM] | mTGR5 % trans (mTGR5) [%] |
| --- | --- | --- | --- | --- |
| [2-[2,6-Difluoro-4-(2-methoxy-polyethyleneglycoxy)-benzylsulfanyl]-3-(4-fluorophenyl)-3H-imidazol-4-yl]-(3,4-dimethoxy-phenyl)-methyl-amine [Example 24] | 1200 | 71 | 68 | 126 |
| [2-[2,6-Difluoro-4-(2-methoxy-polyethyleneglycoxy)-benzylsulfanyl]-3-(4-fluoro-phenyl)-3H-imidazol-4-yl]-(3,4-dimethoxy-phenyl)-methyl-amine [Example 22] | 580 | 60 | 29 | 85 |
| [2-[2,6-Difluoro-4-(2-methoxy-polyethyleneglycoxy)-benzylsulfanyl]-3-(4-fluoro-phenyl)-3H-imidazol-4-yl]-(3,4-dimethoxy-phenyl)-methyl-amine [Example 9] | 160 | 85 | 18 | 98 |
| [2-[2,6-Difluoro-4-(2-methoxy-polyethyleneglycoxy)-benzylsulfanyl]-3-(4-fluoro-3-methoxy-phenyl)-3H-imidazol-4-yl]-(3,4-dimethoxy-phenyl)-methyl-amine [Example 23] | 330 | 103 | 26 | 108 |
